Values quoted from earlier work as cited in paper PMC5085262 (Chemical Science, 2016).

Details: no reference given

In the case of `Oc1cccc2cccnc12` [Quin, 8-hydroxyquinoline], the “pKa of the free ligand (phenolate group)” value is given as “≈ 9.9”.
